Experimental data: US6610494B2, “Solid-phase activity assay for biologically active substance” (priority 1996, dated 2003)

Key:
biotinylated α-casein = test: Solid phase protease activity assay using biotinylated casein; assay type: biochemical
Protocol: Preparation of biotinylated casein: 12 mg α-casein in 1 ml of 0.1 M pH 7.2 phosphate-buffer saline [PBS, NaCl, 9.00; Na2HPO4, 1.15; NaH2PO4, 0.23 (g/l)] was allowed to react with 3.6 mg NHS-biotin in 150 ul DMSO for 2 hours at room temperature with gently shaking.
Assay procedure for protease activity using biotinylated casein: The microtitre plates except for the first column of 8 wells were coated using biotinylated α-casein in PBS (0.13 ug/well/100 ul) and incubated for 2 hours at 37° C. The plates were washed three times with 0.1 M PBST (PBS with 0.05% Tween-20). Different concentrations of the enzyme solution as indicated in FIGS. 12-14 (100 ul) were diluted with the appropriate buffer (see Table 2). They were added in triplicate to the wells of a plate followed by incubating in a humid atmosphere at 37° C. for 30 minutes. The plate was washed three times using PBST to terminate the protease reaction. A streptavidin-alkaline phosphatase solution (100 ul/well, 1:1000 dilution in bicarbonate buffer pH 9.5) was added to all wells in the plate except for the first column of 8 wells (as blank) and the plate was incubated at room temperature for 30 minutes. The blank set of wells contained only PBS, no added enzyme and no coating with biotinylated casein. The reaction was stopped by emptying and washing the plate six times with PBST. The pNPP substrate (100 ul/well, 1 mg/ml in 10% diethanolamine buffer pH9.8) was added to each well of the plate followed by incubation at room temperature for about 20 minutes. The absorbency was then read at 405 nm using a microplate reader (Bio-Rad laboratories, Ltd, Mississauga, ON, Canada; model 450). The best sensitivity was obtained when the maximum absorbency was around 2.0 optical density units.

[1] = biological target: T1, trypsin egg white inhibitor (ovomucoid) (Gallus gallus, UniProt P01005); test: BEISA: competition of unlabelled proteases with biotinylated trypsin for coated inhibitor; assay type: binding; conditions: ovomucoid-coated plate
T1 construct: purchased Sigma Chemical Co. or Fisher Scientific Co
T1 sequence (P01005 25-210): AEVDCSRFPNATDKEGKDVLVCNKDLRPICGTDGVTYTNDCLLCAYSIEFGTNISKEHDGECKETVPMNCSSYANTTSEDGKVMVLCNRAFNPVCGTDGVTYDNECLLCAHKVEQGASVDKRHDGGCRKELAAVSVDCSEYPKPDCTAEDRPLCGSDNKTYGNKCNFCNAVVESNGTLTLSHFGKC
Protocol: The 96-well microtiter plate (Falcon 3911) was coated with trypsin egg white inhibitor (ovomucoid, 4 ug/100 ul/well) at […] overnight. The plate was washed once using PBST {[PBS, NaCl, 9.00; Na2HPO4, 1.15; NaH2PO4, 0.23 (g/l) pH 7.2] plus 0.05% Tween-20} and 200 ul of 5% skim milk was added to each well of the plate followed by incubation at 37° C. for 2 hours. The plate was rinsed twice with PBST and 50 ul of PBS was added to each well of the plate except for those in column one where 100 ul of PBS was added. Unlabelled trypsin (50 ul of 400 ug/ml) was added to the wells of the second column followed by successive double dilutions of trypsin in wells up to and including those in column 11. Biotinylated trypsin in PBS (50 ul of 1:3000 dilution of the stock to yield approximately 2 ug/100 ul/well) was added to each well except those in the first column followed by incubation at 37° C. for 1 hour. The final volume in each well was 100 ul. The blank set of wells with no trypsin (column 1) served as the negative control while the last set of wells (column 12) with biotinylated trypsin but no unlabelled trypsin served as the positive control. […] The absorbency was then read at 405 nm using a microplate reader (Bio-Rad laboratories Inc. Mississauga, ON, Canada, model 450). […]

[2] = optimal pH of each protease, 37° C., 30 minutes

Sensitivity: amount of enzyme required to produce a 10% decrease in maximal absorbency (biotinylated α-casein; 0.5 hour hydrolysis): 30 ng/100 ul
Sensitivity (amount of enzyme required to hydrolyse 10% of the biotinylated α-casein) (biotinylated α-casein; [2]): 30 ng/100 ul/sample
Concentration of trypsin that could be detected [1]: 0.1 to 1.0 µg/mL
Substance: trypsin
Hydrolysis of biotin-casein by proteases (biotinylated α-casein; [2]): Yes
